What was measured:
[1] = Preclinical pharmacokinetic test in rats; assay type: in vivo; settings: rat, po; male SD rats, intragastric administration (p.o.), 10 mg/kg, plasma
Method: Healthy adult SD rats, male, aged 6-8 weeks, with a body weight of 200-300 g, purchased from Vital River Company; EDTA-Na2 anticoagulant; and analytical balance, animal weighing scale, magnetic stirrer, refrigerated centrifuge, single-channel manual pipette, and the like.
• 1. Drug preparation: approximately 10 mg of the test sample was accurately weighed and dissolved in 5% DMSO (after conversion), and then 10% solutol HS-15 and 85% normal saline were added. The mixture was subjected to ultrasonic processing and mixed by vortexing to obtain a solution at a concentration of 1 mg/mL, which was freshly prepared before use. 0.2 mL of the sample was transferred into a 1.5 mL centrifuge tube and stored at -80°C for administration solution concentration analysis. • 2. Animal preparation: the rats were fed in rat cages, and fasted (for at least 10 hours) with free access to water one day before the experiment. On the day of experiment, the rats were weighed and marked at the tail respectively. Blank blood samples were collected respectively before drug administration. The blood samples were collected via the tail vein. • 3. Drug administration: • administration route: intragastric administration (p.o.); • administration dose: 10 mg/kg; • administration volume: 10 mL/kg; and • operation procedure: the rat was restrained in an upright position with a left hand wearing bite-resistant gloves, a 16-gauge gavage needle was inserted through the oral cavity into the pharynx and advanced without obvious resistance, and then the drug was then injected into the stomach. • 4. Sample collection: whole blood (0.1 mL) was collected from each test animal before drug administration and at 0.5 hours, 1 hour, 2 hours, 4 hours, 6 hours, 8 hours, 12 hours and 24 hours after drug administration, transferred into EDTA-Na2 anticoagulant tubes, mixed evenly by inverting the tubes 3-4 times, and then centrifuged at 10000 g and 4°C for 5 minutes to separate plasma. The obtained plasma samples were stored at -80°C for later analysis. The blood samples were collected via the tail vein.
Specific operation: the rat was secured in a restrainer to fully expose its tail, the tail was wiped with alcohol to make the surface skin absorb the alcohol, so as to induce obvious venous dilation. A suitable vein was selected from two sides, and the needle was inserted at approximately one-third of the distance from the tail tip. An insulin syringe was used as the injection syringe, the needle was inserted with the bevel facing upward, and the needle was immediately adjusted to a parallel position after piercing the skin. Slight sliding resistance of the needle inside the vessel and blood reflux in the injection syringe indicated successful venous access. Approximately 0.1-0.2 mL of whole blood was drawn. Gentle compression was applied for hemostasis after needle removal.
Preparation of standard curve sample: 25 µL of blank rat plasma was transferred into a centrifuge tube respectively, 25 µL of prepared serial standard solution (prepared in methanol) was added, and then 200 µL of internal standard solution (prepared in methanol) was added. The mixture was mixed by vortexing for 2 minutes, and centrifuged at 10000 g and 4°C for 10 minutes.
Treatment of the unknown plasma sample: 25 µL of drug-containing rat plasma was collected respectively, and then 25 µL of methanol and 200 µL of internal standard solution were added sequentially. The mixture was mixed by vortexing for 2 minutes, and centrifuged at 10000 g and 4°C for 10 minutes. The supernatant was collected for LC/MS/MS detection.
A quantitative detection method for the test compound was established by using a Shimadzu liquid chromatography system and a Triple Quad TM 6500+AB mass spectrometer. A concentration of a parent drug in plasma was determined. Plasma concentration-time curves were plotted, and major pharmacokinetic parameters were calculated via a non-compartmental model in winnonlin Phoenix software. […]

c-Kit kinase = c-Kit kinase (Homo sapiens, UniProt P10721); assay: Enzyme activity assay (c-Kit kinase); assay type: biochemical
Chain of c-Kit kinase (P10721 26-976): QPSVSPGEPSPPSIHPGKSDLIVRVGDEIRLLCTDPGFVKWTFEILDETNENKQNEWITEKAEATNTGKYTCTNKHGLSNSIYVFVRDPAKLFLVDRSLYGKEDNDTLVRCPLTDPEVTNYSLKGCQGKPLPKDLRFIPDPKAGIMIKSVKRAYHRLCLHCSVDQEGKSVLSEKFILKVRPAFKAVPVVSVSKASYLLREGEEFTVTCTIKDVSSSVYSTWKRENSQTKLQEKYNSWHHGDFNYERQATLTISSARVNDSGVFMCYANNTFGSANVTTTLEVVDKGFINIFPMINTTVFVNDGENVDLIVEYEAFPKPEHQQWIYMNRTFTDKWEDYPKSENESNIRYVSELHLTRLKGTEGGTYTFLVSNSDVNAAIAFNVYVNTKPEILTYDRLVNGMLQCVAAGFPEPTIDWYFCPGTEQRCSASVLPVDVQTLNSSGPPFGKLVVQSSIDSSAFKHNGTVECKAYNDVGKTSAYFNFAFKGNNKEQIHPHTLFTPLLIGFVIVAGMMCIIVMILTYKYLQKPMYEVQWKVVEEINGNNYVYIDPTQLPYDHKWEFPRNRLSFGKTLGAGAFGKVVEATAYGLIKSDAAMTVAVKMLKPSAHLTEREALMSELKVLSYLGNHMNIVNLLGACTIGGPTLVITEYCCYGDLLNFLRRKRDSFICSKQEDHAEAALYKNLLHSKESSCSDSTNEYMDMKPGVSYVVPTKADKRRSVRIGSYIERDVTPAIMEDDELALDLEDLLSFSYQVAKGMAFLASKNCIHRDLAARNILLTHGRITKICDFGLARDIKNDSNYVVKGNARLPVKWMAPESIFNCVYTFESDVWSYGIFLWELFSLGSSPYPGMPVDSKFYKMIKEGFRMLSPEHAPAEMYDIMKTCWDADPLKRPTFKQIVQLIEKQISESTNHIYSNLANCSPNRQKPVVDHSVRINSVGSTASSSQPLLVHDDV
Method: Biological activity tests were performed on partial compounds synthesized in the above examples and comparative examples below. […]

[2] = Brain-penetrating pharmacokinetic test; assay type: in vivo, Sprague-Dawley (SD) rat; settings: SD rats, p.o., 10 mg/kg, single administration; for Kp: Sprague-Dawley, rat, brain tissue / plasma, po, read-out: Total drug brain-to-plasma ratio (B/P)
Method: Administration vehicle: 5% DMSO+10% Solutol HS15+85% normal saline
Formulation preparation process: an appropriate amount of powder was weighed, an appropriate volume of DMSO was added, and the mixture was mixed by vortexing. Subsequently, an appropriate volume of Solutol solution was added and vortexed, then normal saline was added, and the mixture was subjected to vortexing and ultrasonic processing to form a homogeneous and clear formulation solution.
The experimental animals were fed in an animal room. The animal room was equipped with an air-conditioning system, with adequate ventilation, an indoor temperature was maintained at 20-26°C, and a relative humidity was maintained at 40%-70%. Artificial lighting was applied in the animal room, with a 12-hour light/dark cycle (except for working lights turned on during experimental operations and cleaning). The experimental animals had free access to food and water.
The purchased animals were fed normally for at least 3 days, rats with healthy physical conditions were included in the experiment, and each rat was marked with a tail number. Animals in an oral administration group were fasted overnight one day before drug administration, and fed 4 hours after drug administration, with free access to water.
• Administration route: intragastric administration (p.o.) • Administration concentration: 1 mg/mL • Administration dose: 10 mg/kg • Administration volume: 10 mL/kg • Administration frequency: single administration
Before drug administration, a state of the administration formulation was examined, the homogeneity of the formulation was ensured by vortexing, stirring or shaking, and a theoretical administration volume for each SD rat in every group was calculated according to the following formula. Theoretical; administration volume(mL) = (Dose (mg⋅kg^−1))/(Formulation; concentration(mg⋅mL^−1)) × Body; weight(kg) [formula]
The rats were sampled at 1 hour, 2 hours, 4 hours, 6 hours, 8 hours and 24 hours after drug administration.
Plasma: at each time point, 0.25 mL of whole blood was collected from the jugular vein and transferred into a test tube containing an anticoagulant EDTA-K2 (7 µL, 10% EDTA-K2 solution), placed on wet ice, and centrifuged within 1 hour (2,000 g, 2-8°C, 10 minutes), and then, the plasma was taken. The plasma was stored in a pre-chilled centrifuge tube, rapidly frozen in dry ice, and then stored in an ultra-low temperature refrigerator at -60°C or lower until LC-MS/MS analysis.
Cerebrospinal fluid: the rats were euthanized via a carbon dioxide process, and approximately 60 µL of cerebrospinal fluid was collected by puncture. 1 mL syringe was used, with the bevel of the needle facing upward, the needle tip was inserted into the subarachnoid space in a nearly horizontal position, then the needle was fixed, and the cerebrospinal fluid was slowly aspirated. The collected samples were frozen on dry ice within 30 minutes, and then transferred to an environment at -90°C to -60°C.
Brain tissue: cardiac perfusion was performed first, and then the brain tissue was isolated. Under deep terminal anesthesia, approximately 80 mL of normal saline was used for cardiac perfusion, and residual blood in the brain tissue was flushed out of cerebral circulation. The isolated brain tissue was gently rinsed once with ice-cold normal saline, excess water was removed, weighed, and then transferred to a frozen storage environment at -90°C to -60°C.
A quantitative detection method for the test compound was established by using a Shimadzu liquid chromatography system and a Triple Quad TM 6500+AB mass spectrometer. A concentration of a parent drug in a sample was analyzed. Quality control samples were used for variation control over analysis results, and the accuracy of the quality control samples should fall within the range of 80%-120%.
Pharmacokinetic parameters: Tmax, Cmax, AUC (0-t), AUC (0-∞), T1/2, MRT (0-∞), and the like were calculated by using winnonlin Phoenix 8.1.0.3530. […]

Row | AUC [1] [ng·h/mL] | Cmax [1] [ng/mL] | IC50 (c-Kit kinase) [nM] | Total drug concentration in brain tissue [2] [ng·h/mL] | Total drug concentration in plasma [2] [ng·h/mL] | Kp [2] | SMILES
1 | 2690 | 419 | 1.67 | 1370.43 | 2687.12 | 0.51 | [2H]C([2H])([2H])N1CCN(Cc2ccc(C(=O)Nc3ccc(C)c(Nc4nc(-c5cccnc5)cs4)c3)c(F)c2)CC1 [Compound T-01]
2 | 2370 | 397 | – | – | – | – | [2H]C([2H])(c1ccc(C(=O)Nc2ccc(C)c(Nc3nc(-c4cccnc4)cs3)c2)cc1)N1CCN(C)CC1 [Compound T-02]
3 | 3260 | 486 | – | – | – | – | [2H]C([2H])([2H])N1CCN(C([2H])([2H])c2ccc(C(=O)Nc3ccc(C)c(Nc4nc(-c5cccnc5)cs4)c3)cc2)CC1 [Compound T-04]
4 | – | – | 3.89 | 1798.12 | 3269.32 | 0.55 | [2H]C([2H])([2H])N1CCN(C([2H])([2H])c2ccc(C(=O)Nc3ccc(C)c(Nc4nc(-c5cccnc5)cs4)c3)c(F)c2)CC1 [Compound T-08]
5 | – | – | 3.55 | – | – | – | [2H]C([2H])(c1ccc(C(=O)Nc2ccc(C(F)(F)F)c(Nc3nc(-c4ccc(F)nc4)cs3)c2)cc1)N1CCN(C)CC1 [Compound T-11]
6 | – | – | 2.13 | – | – | – | [2H]C([2H])(c1ccc(C(=O)Nc2ccc(C(F)(F)F)c(Nc3nc(-c4cccnc4)cs3)c2)cc1)N1CCN(C)CC1 [Compound T-12]
7 | – | – | 3.56 | – | – | – | [2H]C([2H])([2H])N1CCN(C([2H])([2H])c2ccc(C(=O)Nc3ccc(C(F)(F)F)c(Nc4nc(-c5cccnc5)cs4)c3)cc2)CC1 [Compound T-15]
8 | 4010 | 516 | 2.12 | 3129.79 | 4012.56 | 0.78 | [2H]C([2H])(c1ccc(C(=O)Nc2ccc(C(F)(F)F)c(Nc3nc(-c4ccc(F)nc4)cs3)c2)c(F)c1)N1CCN(C)CC1 [Compound T-16]
9 | 4290 | 533 | 1.35 | – | – | – | [2H]C([2H])([2H])N1CCN(C([2H])([2H])c2ccc(C(=O)Nc3ccc(C(F)(F)F)c(Nc4nc(-c5ccc(F)nc5)cs4)c3)c(F)c2)CC1 [Compound T-17]
10 | 4000 | 501 | 3.12 | – | – | – | [2H]C([2H])([2H])N1CCN(C([2H])([2H])c2ccc(C(=O)Nc3ccc(C(F)(F)F)c(Nc4nc(-c5cccnc5)cs4)c3)c(F)c2)CC1 [Compound T-18]
11 | – | – | 2.11 | – | – | – | [2H]C([2H])([2H])N1CCN(Cc2ccc(C(=O)Nc3ccc(C(F)(F)F)c(Nc4nc(-c5ccc(F)nc5)cs4)c3)c(F)c2)CC1 [Compound T-19]
12 | – | – | 2.1 | 3092.40 | 4123.20 | 0.75 | [2H]C([2H])([2H])N1CCN(Cc2ccc(C(=O)Nc3ccc(C(F)(F)F)c(Nc4nc(-c5cccnc5)cs4)c3)c(F)c2)CC1 [Compound T-20]
13 | – | – | 1.36 | 2763.22 | 3891.87 | 0.71 | [2H]C([2H])(c1ccc(C(=O)Nc2ccc(C(F)(F)F)c(Nc3nc(-c4cccnc4)cs3)c2)c(F)c1)N1CCN(C)CC1 [Compound T-21]
14 | 1770 | 321 | – | 356.98 | 1771.48 | 0.2 | Cc1ccc(NC(=O)c2ccc(CN3CCN(C)CC3)cc2)cc1Nc1nc(-c2cccnc2)cs1 [Masitinib, reference compound]
